Measurements taken from patent publication US4835153A, “Malonic acid derivatives” (Nihon Nohyaku Co., Ltd., priority 1986, dated 1989).

How the values were obtained:
[1] = tested on: hepatic disorder caused by carbon tetrachloride (liver injury, plasma glutamic pyruvic transaminase); experiment: Effect of suppressing hepatic disorder caused by carbon tetrachloride; format: in vivo, mice (dd-strain, male); set-up: key to Liver injury index: liver injury index 0 = healthy, 2 slight, 4 evident, 6 serious injury; details: 30 mg/kg oral, 6 h before CCl4 0.05 ml/kg oral, 24 h after CCl4, mean of five mice; for Liver injury index: 0 healthy, 2 slightly affected, 4 evident injury, 6 serious injury; for p-GPT (plasma glutamic pyruvic transaminase activity): Reitman-Frankel, Karmen Units, >=2,100 calculated as 2,100
Method: Test Example 1 Effect of suppressing hepatic disorder caused by carbon tetrachloride. Test Method […] Six hours thereafter, carbon tetrachloride was orally administered in a proportion of 0.05 ml/kg. The animals were sacrificed 24 hours after the administration of carbon tetrachloride, and the extent of liver injury was grossly examined. On the other hand, blood was collected from the animal at the time of the sacrifice, and centrifuged to obtain plasma. The plasma glutamic pyruvic transminase (GPT) activity was determined according to the method of Reitman-Frankel. The activity was expressed in terms of Karmen Units (K.U.). The conditions of the liver were expressed in terms of liver injury index as follows. […] When the GPT activity was 2,100 units or higher, […], and the activity was calculated as 2,100 units for reasons of convenience.

[2] = acute oral toxicity to male rat (LD50); details: in vivo
Method: For example, LD50 value (acute oral toxicity to male rat) of the compound No. 20 is more than 1,000 mg/kg.

Row | Compound | Liver injury index [1] | p-GPT (plasma glutamic pyruvic transaminase activity) [1] | LD50 [2]
1 | CCCCOC(=O)C(C(=O)OC(C)C)=C1SC2C(S1)N(CC)CCN2CC (stereo not drawn) [Compound 68] | 1.5 | 914.6 K.U. | 
2 | CCOC(=O)C(C(=O)OC(C)c1ccccc1)=C1SC2C(S1)N(C)CCN2C (stereo not drawn) [Compound 84] | 0.8 | 37 K.U. | 
3 | CCCOC(=O)C(C(=O)OCCC)=C1SC2C(S1)N(C)CCN2C (stereo not drawn) [Compound 20] |  |  | > 1000 mg/kg
4 | CCOC(=O)C(C(=O)OC(C)C)=C1SC2C(S1)N(C)CCN2C (stereo not drawn) [Compound 56] | 0 | 16.8 K.U. | 
5 | CCC(C)OC(=O)C(C(=O)OC(C)CC)=C1SC2NCCNC2S1 (stereo not drawn) [Compound 87] | 0.2 | 21 K.U. | 
6 | CC(C)OC(=O)C(C(=O)OC(C)C)=C1SC2NCCNC2(C)S1 (stereo not drawn) [Compound 97] | 0.2 | 45.0 K.U. | 
7 | COC(=O)C(C(=O)OC)=C1SC2C(S1)N(C)CCN2C (stereo not drawn) [Compound 18] | 1.8 | 166 K.U. | 
8 | CCCCOC(=O)C(C(=O)OCC)=C1SC2C(S1)N(C)CCN2C (stereo not drawn) [Compound 59] | 0.5 | 109.2 K.U. | 
9 | CCOC(=O)C(C(=O)OC(C)c1ccc(Cl)cc1)=C1SC2C(S1)N(C)CCN2C (stereo not drawn) [Compound 83] | 0.8 | 38.6 K.U. | 
10 | CCOC(=O)C(C(=O)OCC(C)C)=C1SC2C(S1)N(CC)CCN2CC (stereo not drawn) [Compound 67] | 2.5 | 1,620 K.U. | 
11 | CC(C)OC(=O)C(C(=O)OC(C)c1ccc(Cl)cc1Cl)=C1SC2C(S1)N(C)CCN2C (stereo not drawn) [Compound 79] | 1.4 | 1,060 K.U. | 
12 | CCCOC(=O)C(C(=O)OCCC)=C1SC2NCCNC2(C)S1.Cl (stereo not drawn) [Compound 96, Di-n-propyl(6-methyl-2,5-diaza-7,9-dithiabicyclo-[4,3,0]-nonane-8-ylidene)malonate hydrochloride salt] | 0.1 | 28.0 K.U. | 
13 | CCCCOC(=O)C(C(=O)OCCCC)=C1SC2C(S1)N(C)CCN2C (stereo not drawn) [Compound 23] | 1.2 | 10.2 K.U. | 
14 | CC(C)OC(=O)C(C(=O)OC(C)C)=C1SC2C(S1)N(C)CCN2C (stereo not drawn) [Compound 16, Diisopropyl(2,5-dimethyl-2,5-diaza-7,9-dithiabicyclo-[4,3,0]-nonane-8-ylidene)malonate] | 0.6 | 32 K.U. | 
15 | CCCOC(=O)C(C(=O)OCCC)=C1SC2NCCNC2S1 (stereo not drawn) [Compound 3] | 0.1 | 53.0 K.U. | 
16 | CC(C)OC(=O)C(C(=O)OC(C)C)=C1SC2C(S1)N(C)CCN2C (stereo not drawn) [Compound 94] | 2.0 | 1,534 K.U. | 
17 | Cc1ccc(COC(=O)C(C(=O)OC(C)C)=C2SC3C(S2)N(C)CCN3C)cc1 (stereo not drawn) [Compound 74] | 0.6 | 25 K.U. | 
18 | CCOC(=O)C(C(=O)OC)=C1SC2C(S1)N(C)CCN2C (stereo not drawn) [Compound 54] | 0 | 13.4 K.U. | 

Row | Compound | Liver injury index [1] | p-GPT (plasma glutamic pyruvic transaminase activity) [1] | LD50 [2]
19 | COCC(C)OC(=O)C(C(=O)OC(C)COC)=C1SC2C(S1)N(C)CCN2C (stereo not drawn) [Compound 51] | 0.4 | 18.2 K.U. | 
20 | CCOC(=O)C(C(=O)OCC)=C1SC2C(S1)N(C)CCN2C (stereo not drawn) [Compound 19] | 1.6 | 99 K.U. | 
21 | C=CCN1CCN(CC=C)C2SC(=C(C(=O)OCCC)C(=O)OCCC)SC21 (stereo not drawn) [Compound 43] | 0.2 | 51 K.U. | 
22 | C=CCOC(=O)C(C(=O)OCC=C)=C1SC2C(S1)N(CC=C)CCN2CC=C (stereo not drawn) [Compound 49] | 1.2 | 23.8 K.U. | 
23 | CCC(COC)OC(=O)C(C(=O)OC(CC)COC)=C1SC2C(S1)N(C)CCN2C (stereo not drawn) [Compound 63] | 0.5 | 32.8 K.U. | 
24 | Cc1ccc(C(C)OC(=O)C(C(=O)OC(C)C)=C2SC3C(S2)N(C)CCN3C)cc1 (stereo not drawn) [Compound 81] | 1.2 | 120 K.U. | 
25 | COc1ccc(COC(=O)C(C(=O)OC(C)C)=C2SC3C(S2)N(C)CCN3C)cc1 (stereo not drawn) [Compound 75, Isopropyl 4-methoxybenzyl(2,5-dimethyl-2,5-diaza-7,9-dithiabicycl-[4,3,0]-nonane-8-ylidene)malonate] | 0 | 20 K.U. | 
26 | CCN1CCN(CC)C2(C)SC(=C(C(=O)OC(C)C)C(=O)OC(C)C)SC12 (stereo not drawn) [Compound 33] | 1.2 | 925 K.U. | 
27 | CCCOC(=O)C(C(=O)OCCC)=C1SC2C(S1)N(CC)CCN2CC (stereo not drawn) [Compound 37] | 1.4 | 143 K.U. | 
28 | CCCCOC(=O)C(C(=O)OCCCC)=C1SC2C(S1)N(CC)CCN2CC (stereo not drawn) [Compound 30] | 0.8 | 22.8 K.U. | 
29 | CC(C)OC(=O)C(C(=O)OC(C)C)=C1SC2NCCNC2S1 (stereo not drawn) [Compound 2, Diisopropyl(2,5-diaza-7,9-dithiabicyclo-[4,3,0]-nonane-8-ylidene)malonate] | 0.3 | 24.4 K.U. | 
30 | CCN1CCN(CC)C2SC(=C(C(=O)OC(C)(C)C)C(=O)OC(C)(C)C)SC21 (stereo not drawn) [Compound 40] | 1.8 | 164 K.U. | 
31 | CCOC(=O)C(C(=O)OC(C)(C)C)=C1SC2C(S1)N(CC)CCN2CC (stereo not drawn) [Compound 72] | 0.4 | 428.6 K.U. | 
32 | CC(C)OC(=O)C(C(=O)OC(C)C)=C1SC2N(C)CCN(C)C2(C)S1 (stereo not drawn) [Compound 28] | 1.5 | 547 K.U. | 
33 | CCN1CCN(CC)C2SC(=C(C(=O)OC)C(=O)OC)SC21 (stereo not drawn) [Compound 25] | 0.4 | 13.2 K.U. | 
34 | CCCOC(=O)C(C(=O)OCCC)=C1SC2C(S1)N(C(C)=O)CCN2CC (stereo not drawn) [Compound 10] | 4.5 | 2,000 K.U. | 
35 | CCOC(=O)C(C(=O)OCC)=C1SC2NCCNC2S1 (stereo not drawn) [Compound 1] | 2.0 | 225 K.U. | 
